Values of other authors, collected in publication PMC12118597 (Science Advances, 2025).

System: Mac1
Conditions: cited from earlier work

CCNC(=O)Nc1cccc2c1[nH]c1ncnc(NN3C(=O)CCC3(C)C)c12 [AVI-4206]
potency (in words): double-digit nanomolar
